Test results published in US12558442B2, “Biological fluid treatment systems” (priority 2019, dated 2026).

Test system: Klebsiella pneumoniae
Assay: Photochemical inactivation of K. pneumoniae in plasma or platelets in PAS with amotosalen and UVA LED illumination
Format: cell-based
Settings: 150 μM amotosalen nominal, triplicate

SMILES: Cc1oc2c(C)c3oc(=O)cc(C)c3cc2c1COCCN [S-59, 3-(2-aminoethoxymethyl)-2,5,9-trimethylfuro[3,2-g]chromen-7-one]
- Log Inactivation (plasma, INTERCEPT plasma set, 6.4 J/cm^2, UVA LEDs 346-349 nm): 6.3 ± 0.3 log
- Log Inactivation (plasma, INTERCEPT plasma set, 6.4 J/cm^2, UVA LEDs 346-349 nm, listed as amotosalen): 6.3±0.3 log
- Log Inactivation (platelets/PAS, LV set, 3.9 J/cm^2, UVA LEDs 346-349 nm): 7.2 ± 0.2 log
- Log Inactivation (platelets/PAS, LV set, 3.9 J/cm^2, UVA LEDs 346-349 nm, listed as amotosalen): 7.2±0.2 log
